Experimental data as given in paper PMC7880572 (ACS Chemical Neuroscience, 2021).
Where two headings read alike, the source gives them in different places.

How the values were obtained:
[1] = target: T1, Aβ40 (Homo sapiens, UniProt P05067); parameters: method as in PMID 25924599; conditions: first series; cited from earlier work
T1 construct: samples of Aβ40 (30 μM) were coincubated for 2 h at 25 °C with test molecules; purchased EzBiolab, Carmel, IN, USA

[2] = test system: BChE; parameters: method as in PMID 25924599; conditions: first series; cited from earlier work
[3] = target: T1, Aβ40; assay: Inhibition of self-induced Aβ40 aggregation (ThT fluorescence, HFIP); type: biochemical; conditions: Aβ40 30 μM, 2 h at 25 °C, PBS 2% HFIP; mean ± SEM, n = 3; read-out: Aβ40 aggr IC50
Procedure: In vitro inhibition of Aβ40 aggregation was assessed following a previously reported thioflavin T (ThT) fluorescence-based method involving the use of hexafluoroisopropanol (HFIP) as aggregation enhancer. […].
In vitro inhibition assay of Aβ40 aggregation has been previously reported[41] and adapted to a 96-well plate platform.
(§1) After incubation in 96-well black, nonbinding microplates (Greiner Bio-One GmbH, Frickenhausen, Germany), thioflavin T (25 μM) was added and fluorimetric reads (ex 440, em 485 nm) were performed in a multiplate reader Infinite M1000 Pro (Tecan, Cernusco sul Naviglio, Italy). Experiments were run in triplicate. Results were expressed by statistical analysis while IC50 values were obtained by nonlinear regression using Prism software (GraphPad Prism version 5.00 for Windows, GraphPad Software, San Diego, CA, USA).

[4] = target: T2, eeAChE (AChE from electric eel) (Electrophorus electricus, UniProt O42275); assay: biochemical; conditions: mean ± SEM, n = 3
T2 construct: purchased Sigma-Aldrich, Milan, Italy
T2 sequence (O42275 24-633): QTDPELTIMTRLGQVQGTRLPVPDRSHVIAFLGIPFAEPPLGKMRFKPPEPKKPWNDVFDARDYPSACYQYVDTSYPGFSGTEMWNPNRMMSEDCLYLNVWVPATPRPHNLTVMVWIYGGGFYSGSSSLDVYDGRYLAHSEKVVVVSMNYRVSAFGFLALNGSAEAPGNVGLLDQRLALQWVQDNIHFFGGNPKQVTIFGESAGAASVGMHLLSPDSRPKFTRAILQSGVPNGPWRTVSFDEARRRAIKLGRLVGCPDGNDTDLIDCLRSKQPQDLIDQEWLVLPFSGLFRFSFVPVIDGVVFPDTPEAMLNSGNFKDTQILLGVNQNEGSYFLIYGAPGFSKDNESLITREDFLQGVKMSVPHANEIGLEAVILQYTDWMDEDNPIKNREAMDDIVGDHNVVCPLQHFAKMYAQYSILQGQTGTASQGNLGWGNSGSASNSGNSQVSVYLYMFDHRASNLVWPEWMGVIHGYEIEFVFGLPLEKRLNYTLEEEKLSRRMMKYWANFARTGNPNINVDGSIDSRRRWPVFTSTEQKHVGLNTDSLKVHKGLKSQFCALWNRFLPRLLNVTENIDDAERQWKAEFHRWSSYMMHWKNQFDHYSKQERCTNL

[5] = target: T3, esBChE (BChE from equine serum) (Equus caballus, UniProt P81908); assay: biochemical; conditions: mean ± SEM, n = 3
T3 construct: BChE from horse serum (13 U/mL); purchased Sigma-Aldrich, Milan, Italy; host or cells: horse serum
T3 sequence (P81908 whole entry): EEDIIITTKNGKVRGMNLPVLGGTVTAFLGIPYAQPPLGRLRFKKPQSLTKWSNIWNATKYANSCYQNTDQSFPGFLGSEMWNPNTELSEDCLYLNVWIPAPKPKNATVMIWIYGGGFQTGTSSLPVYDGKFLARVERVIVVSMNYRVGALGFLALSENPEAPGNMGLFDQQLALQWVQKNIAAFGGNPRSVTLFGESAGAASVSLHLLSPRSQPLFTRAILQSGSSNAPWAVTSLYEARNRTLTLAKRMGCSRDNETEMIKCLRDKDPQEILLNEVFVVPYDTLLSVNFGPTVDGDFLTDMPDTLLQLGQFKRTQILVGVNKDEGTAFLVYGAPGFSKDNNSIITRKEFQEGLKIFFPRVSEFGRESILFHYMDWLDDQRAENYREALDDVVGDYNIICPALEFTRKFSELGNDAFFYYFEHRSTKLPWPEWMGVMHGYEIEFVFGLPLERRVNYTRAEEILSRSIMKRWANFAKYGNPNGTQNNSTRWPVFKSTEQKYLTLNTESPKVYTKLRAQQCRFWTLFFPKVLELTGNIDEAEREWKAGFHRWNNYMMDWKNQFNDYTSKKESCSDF

[6] = target: T4, hMAO A (Homo sapiens, UniProt P21397); assay: MAO A inhibition (fluorimetric kynuramine assay); type: biochemical; conditions: mean ± SEM, n = 3
T4 construct: purchased Sigma-Aldrich
T4 sequence (P21397 1-527): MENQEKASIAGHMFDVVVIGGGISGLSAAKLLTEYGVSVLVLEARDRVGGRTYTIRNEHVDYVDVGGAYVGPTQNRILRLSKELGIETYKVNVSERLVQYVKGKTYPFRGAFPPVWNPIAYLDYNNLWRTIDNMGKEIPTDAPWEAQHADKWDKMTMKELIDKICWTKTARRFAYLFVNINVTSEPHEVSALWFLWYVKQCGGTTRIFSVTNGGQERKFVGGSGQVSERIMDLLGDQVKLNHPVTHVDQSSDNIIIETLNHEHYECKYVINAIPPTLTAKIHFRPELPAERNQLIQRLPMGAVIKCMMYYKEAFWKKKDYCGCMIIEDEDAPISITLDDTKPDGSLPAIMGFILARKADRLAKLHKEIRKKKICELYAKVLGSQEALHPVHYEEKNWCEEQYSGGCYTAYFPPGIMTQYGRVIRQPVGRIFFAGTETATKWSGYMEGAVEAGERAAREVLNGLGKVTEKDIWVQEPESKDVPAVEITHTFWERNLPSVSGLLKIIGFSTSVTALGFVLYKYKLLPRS

[7] = target: T5, MAO B (Homo sapiens, UniProt P27338); assay: MAO B inhibition (fluorimetric kynuramine assay, inhibition kinetics); type: biochemical; conditions: for IC50: mean ± SEM, n = 3
T5 construct: purchased Sigma-Aldrich
T5 sequence (P27338 1-520): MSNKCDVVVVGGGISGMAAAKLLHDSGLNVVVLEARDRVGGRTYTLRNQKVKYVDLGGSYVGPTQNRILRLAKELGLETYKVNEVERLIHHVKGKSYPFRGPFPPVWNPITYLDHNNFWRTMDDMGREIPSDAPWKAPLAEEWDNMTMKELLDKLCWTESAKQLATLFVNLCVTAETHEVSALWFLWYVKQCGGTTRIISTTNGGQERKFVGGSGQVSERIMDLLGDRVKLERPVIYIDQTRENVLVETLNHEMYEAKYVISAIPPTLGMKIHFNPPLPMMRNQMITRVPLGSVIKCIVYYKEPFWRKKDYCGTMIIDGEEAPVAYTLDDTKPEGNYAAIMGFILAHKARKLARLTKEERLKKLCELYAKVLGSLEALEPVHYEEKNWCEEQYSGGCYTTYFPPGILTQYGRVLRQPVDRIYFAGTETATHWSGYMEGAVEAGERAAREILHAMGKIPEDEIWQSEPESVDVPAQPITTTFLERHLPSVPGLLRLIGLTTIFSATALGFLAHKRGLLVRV

[8] = target: T6, R3 tau sequence (Homo sapiens, UniProt P10636); assay: Inhibition of R3 aggregation (ThT fluorescence); type: biochemical; conditions: R3 25 μM, 4 h at 37 °C; mean of two independent experiments
T6 construct: The 30-amino acid peptide (V306-Q336) R3; purchased Bachem, Bubendorf, Switzerland
T6 sequence (P10636 623-653 limits assumed): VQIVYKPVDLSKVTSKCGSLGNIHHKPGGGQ
Source text: . The 30-amino acid peptide (V306-Q336) R3 is a high-repeated domain containing the PHF6 sequence and present in all tau isoforms.[62] Its high propensity to self-aggregate in buffered solutions, even in the absence of aggregation inducers such as heparin,[63] makes R3 a reliable surrogate of full-length tau protein for in vitro experiments. In our assay protocol, the commercial R3 peptide was pretreated with 1,1,1-trifluoroethanol (TFE) overnight in order to dissolve any preformed aggregate and reestablish the random coil arrangement, then diluted in PBS at the test concentration of 25 μM.
A stock solution of 1.5 mM R3 (trifluoroacetate salt; Bachem, Bubendorf, Switzerland) was prepared in TFE and left overnight at room temperature. […] . […] IC50 values were calculated by means of Prism as the mean of two independent experiments.

[9] = target: T7, Aβ42 (Homo sapiens, UniProt P05067); assay: Inhibition of Aβ42 fibrillation by ThT fluorescence assay; type: biochemical; conditions: Aβ42 30 μM, 37 °C, 48 h; for inhibition of Aβ42 aggregation (activity profile): 100 and 5 μM
T7 construct: purchased EzBiolab, Carmel, IN, USA
T7 sequence (P05067 672-713 limits assumed): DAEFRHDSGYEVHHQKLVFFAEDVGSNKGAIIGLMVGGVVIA
Procedure: Its high propensity to self-aggregate allows a fast execution of aggregation assays without the need of aggregation enhancers as for Aβ40.
Quercetin (QUR) was used as reference compound.
as §1

[10] = test system: cerebellar granule cells; assay: In vitro cytotoxicity (MTT); type: cell-based; conditions: CGCs, compound 10 μM, 48 h, mean ± SEM
Procedure: . […] For a more meaningful assessment of the value of the present compounds, the issue of their toxicity, in comparison to established drugs for AD, should deserve further investigation.
Cerebellar granule cells were prepared from 8-day-old Sprague Dawley rats as described previously.[66] Cells were studied from the 6th to the 12th day in vitro. The experimental procedures and care of the animals were performed in compliance with the Directive of the EU Parliament and Council of September 22, 2010 (2010/63/EU) and were approved by the Italian Ministry of Health (COD. 75F11.N.6DX) in accordance with D.M. 116/1992. All efforts were made in order to minimize animal suffering and the number of animals necessary to obtain reliable results.
[…]. Cells were maintained in 5% CO2 at 37 °C. The cell viability was assessed by the MTT assay 48 h after the treatment. […]. The survival rates of viable cells were calculated by comparing the optical absorbance of treated samples with that of the untreated controls. All experiments were repeated at least three times independently, and data are expressed as the mean ± SEM.

[11] = based on the PAMPA-BBB classification range from Di et al.
[12] = in vitro; conditions: PAMPA, pH 7.4
[13] = target: PHF6 tau sequence (Homo sapiens, UniProt P10636); assay: Inhibition of PHF6 aggregation (ThT fluorescence); conditions: for inhibition at 10 µM: read-out: PHF6 aggregation inhibition
[14] = test system: AChE; parameters: method as in PMID 25924599; conditions: first series; cited from earlier work
[15] = literature reported PAMPA-BBB permeability; ref 1 (Di et al., 2003); cited from earlier work
[16] = target: T5, MAO B; assay: MAO B kynuramine assay in spectrophotometric mode (4-hydroxyquinoline absorbance at 316 nm), incl. time course; type: biochemical

T1 sequence (P05067 672-711 limits assumed): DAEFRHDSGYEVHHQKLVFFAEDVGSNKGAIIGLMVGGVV

CCN(CC)CCCNc1cccc2c1C(=O)c1ccccc1C2=O [XIII]
IC50 [1]: 61 µM

O=C1c2ccccc2C(=O)c2c(NCCCSC[C@@H]3CCCN4CCCC[C@H]34)cccc21 [XII]
IC50 [2]: 1.1 µM

O=C1c2ccccc2C(=O)c2c(NCCc3ccccc3)cccc21 [Compound 11, 1-(Phenethylamino)-9,10-anthraquinone]
IC50 [3]: 2.1 ± 0.2 µM
IC50 [4]: 7.3 ± 0.7 µM
IC50 [5]: 1.7 ± 0.3 µM
IC50 [6]: 3.1 ± 0.3 µM
IC50 [7]: 0.57 ± 0.02 µM
IC50 [8]: 0.36 ± 0.02 µM
inhibition of Aβ42 aggregation (activity profile) [9]: best activity profile
cell viability vs control (%) [10]: 85 ± 15%
CNS prediction [11]: CNS+
Papp at 16 h [12]: 24.7 ± 2.2 ×10⁻⁶ cm/s
IC50 [13]: 1.78 ± 0.23 µM
inhibition at 10 µM [13]: > 95%

O=C1C(Cl)=C(NCCCC2CCCN3CCCCC23)C(=O)c2ccccc21 (stereo not shown) [VI]
IC50 [14]: 0.011 µM
IC50 [2]: 12 µM

Cc1nnc2n1-c1ccc(Cl)cc1C(c1ccccc1)=NC2 [Alprazolam]
Papp [12]: 4.8 ×10⁻⁶ cm/s
Pe,rep [15]: 5.4 10-6 cm/s

O=C1C(Cl)=C(NCc2ccccc2)C(=O)c2ccccc21 [Compound 2]
IC50 [3]: 3.2 ± 0.8 µM
IC50 [4]: 9.2 ± 0.6 µM
inhibition at 10 µM [5]: 26%
IC50 [6]: 3.6 ± 0.3 µM
increase of Ki for higher coincubation times ([7]; coincubation up to 2 h vs 5 min): about 20 fold
MAO B inhibition mechanism ([7]; coincubation with enzyme limited to 5 min): competitive inhibition
MAO B inhibition mechanism ([7]; higher coincubation times (up to 2 h)): noncompetitive
IC50 [7]: 0.0077 ± 0.0013 µM
selectivity MAO B versus MAO A ([7]; ratio of inhibitory activities): 473 fold
MAO B enzymatic activity in time course ([16]; 10 nM inhibitor, absorption of 4-hydroxyquinoline at 316 nm): still present even after 3 h
IC50 ([16]; absorbance of 4-hydroxyquinoline at 316 nm): 0.018 µM
inhibition of Aβ42 aggregation ([9]; lower concentration used (5 μM)): strong inhibitor
cell viability vs control (%) [10]: 89 ± 14%
CNS prediction [11]: CNS+
Papp at 16 h [12]: 28.4 ± 2.1 ×10⁻⁶ cm/s
inhibition at 10 µM [13]: 91%

O=C1C(Cl)=C(NCCc2ccccc2)C(=O)c2ccccc21 [Compound 3]
IC50 [3]: 4.4 ± 0.3 µM
IC50 [4]: 7.9 ± 0.8 µM
inhibition at 10 µM [5]: 24%
inhibition at 10 µM [6]: 41%
IC50 [7]: 0.031 ± 0.001 µM
IC50 [8]: 1.19 ± 0.44 µM
IC50 [13]: 4.96 ± 0.75 µM
inhibition at 10 µM [13]: > 95%

O=C1C(Cl)=C(NCCc2c[nH]c3ccccc23)C(=O)c2ccccc21 [Compound 5]
IC50 [3]: 6.6 ± 0.1 µM
IC50 [4]: 8.7 ± 0.8 µM
inhibition at 10 µM [5]: 29%
IC50 [6]: 5 ± 0.2 µM
IC50 [7]: 0.11 ± 0.01 µM
cell viability vs control (%) [10]: 85 ± 14%
CNS prediction [11]: CNS+
Papp at 16 h [12]: 14.3 ± 1.3 ×10⁻⁶ cm/s

O=C1c2ccccc2C(=O)c2c(NCCCc3ccccc3)cccc21 [Compound 12, 1-[(3-Phenylpropryl)amino]-9,10-anthraquinone]
IC50 [3]: 1.9 ± 0.3 µM
IC50 [4]: 7.84 ± 0.03 µM
IC50 [5]: 8.2 ± 0.4 µM
inhibition at 10 µM [6]: 50%
IC50 [7]: 0.24 ± 0.05 µM
inhibition of Aβ42 aggregation (activity profile) [9]: best activity profile
cell viability vs control (%) [10]: 77 ± 12%
CNS prediction [11]: CNS+
Papp at 16 h [12]: 22 ± 1.9 ×10⁻⁶ cm/s

O=C1c2ccccc2C(=O)c2c(SC[C@@H]3CCCN4CCCC[C@H]34)cccc21 [XIV]
IC50 [14]: 3.8 µM
IC50 [2]: 3.4 µM

O=C1Nc2ccc(Cl)cc2C(c2ccccc2)=NC1O (stereo not shown) [Oxazepam]
Papp [12]: 9.1 ×10⁻⁶ cm/s
Pe,rep [15]: 10 10-6 cm/s

O=C1c2ccccc2C(=O)c2c(NC[C@@H]3CCCN4CCCC[C@H]34)cccc21 [IX]
IC50 [14]: 0.84 µM
IC50 [1]: 6.4 µM

O=C1C(Cl)=C(NCCCSC[C@@H]2CCCN3CCCC[C@H]23)C(=O)c2ccccc21 [VII]
IC50 [2]: 4.1 µM
IC50 [1]: 61 µM

O=C1c2ccccc2C(=O)c2c(NCCn3nnc4ccccc43)cccc21 [Compound 14, 1-{[2-(1H-Benzotriazol-1-yl)ethyl]amino}-9,10-anthraquinone]
IC50 [3]: 11 ± 2 µM
IC50 [4]: 8.1 ± 0.5 µM
IC50 [5]: 3.4 ± 0.2 µM
inhibition at 10 µM [6]: 53%
IC50 [7]: 0.98 ± 0.14 µM
inhibition of Aβ42 aggregation (activity profile) [9]: best activity profile
